{
  "source": "patent US8193242B2",
  "about": "(XenoPort, Inc., priority 2005, dated 2012)",
  "origin": "cited, not measured here",
  "details": "following oral administration",
  "data": [
    {"compound": "CC(C)(C)C(=O)Oc1ccc(C[C@H](N)C(=O)O)cc1O", "note": "[NB-355]", "values": [
      {"measurement": "Duration of circulating levodopa", "result": "prolonged"},
      {"measurement": "Plasma concentrations of levodopa", "result": "low"}
    ]}
  ]
}
